The values that follow come from patent publication US4528299A, “1-(2,3-Dimethyl-4-methoxyphenyl)-2-methyl-3-(1-pyrrolidinyl)-1-propanone and anti-spastic use thereof” (priority 1982, dated 1985).

One series in a line: Acute toxicity. The class given is in vivo. The note with it: mouse, in vivo, ip, mice; for LD50 at 168 h: 7 days observation; for selectivity ratio: (LD50)/(ED50 of Muscle relaxant effect), i.p., read-out: Safety index. How it is done: (§1) Male mice of STD-ddY strain, weighing 23 to 25 g, were used in groups of 10 animals. The test compounds, suspended or dissolved in 0.5% tragacanth solution, were intraperitoneally administered at a volume of 0.1 ml/10 g body weight. After the administration, the mice were kept for 7 days, and observed for death. The median lethal dose (LD50), the dose which caused death in 50% of animals, were calculated according to the method of Litchfield and Wilcoxon.

Another series relates to muscle relaxation. Nature of the series: Muscle relaxant effect (Traction test). The series is classed as in vivo, Male mice of STD-ddY strain. The note with it: for ED50: Mus musculus, ip, 0.25 h, i.p., mice, 15 minutes after administration. How it is done:
Traction test was used as an index of the muscle relaxation. Male mice of STD-ddY strain, weighing 20 to 25 g, were used in groups of 5 animals. The test compounds, suspended or dissolved in 0.5% tragacanth solution, were intraperitoneally administered at a volume of 0.1 ml/10 g body weight, and 15 minutes after the administration the muscle relaxant effects were examined according to the method of Courvoisier et al (cf. "Psychotropic Drugs", ed. by Garattini, S. and Ghetti, V., Elsevier Pub. Co., Amsterdam, 1957, page 373). The animal was suspended by their forelimbs on a horizontal metal bar with a diameter of 2 mm. The rod was 18 cm above the floor. The animals which could not put their hindlimb on the rod within 5 seconds were judged as a positive (all-or-nothing way). The median effective dose (ED50), the dose which caused the positive effects in 50% of animals, were calculated according to the method of Litchfield and Wilcoxon.

Series [1] has as its system anemic decerebrate rigidity (α-rigidity). The series can be described thus: Effect on anemic decerebrate rigidity (α-rigidity), EMG activity of M. triceps brachii, cumulative i.v. injection. The series is classed as in vivo, Male rats of Wistar strain. The note with it: for ED50: Rattus norvegicus, iv, 5 min, cumulative 1.25-20 mg/kg, dose reducing EMG activity to 50%; for ED50 / α-Rigidity reducing effect Duration: rats; for α-Rigidity reducing effect Duration: time from disappearance to reappearance of EMG activities after total dose of 20 mg/kg, i.v. Here is the method: Anemic decerebrate rigidity is known to be a model showing the abnormal hypertonia. This model was prepared according to the method of Fukuda et al [cf. Japan. J. Pharmacol. 24, 810-813 (1974)]. Male rats of Wistar strain, weighing 250 to 350 g, were used in groups of 5 animals. Under the ether anesthesia, the animal was fixed on its back. After the oesophagus and bilateral common carotid arteries were exposed, the trachea was cannulated and the oesophagus was cut between two placed ligatures. The occipital bone was exposed. The common carotid arteries were ligated bilaterally and a trephined opening was made in the central part of the bone. The dura matter was cut along the basilar artery, and the artery was cauterized with a coagulator of bipolar pincette electrodes (Micro-ID made by Mizuhoika Kogyo Co., Ltd., Japan). After the operation, anesthesia was discontinued. The marked rigidity occurred in the forelimbs within 15 minutes after the operation.
The rat was placed on its back and the hindlimbs fixed. Electromyogram (EMG) was recorded by a coaxial needle electrode inserted into the Musculus triceps brachii of the forelimbs. Reference electrode was inserted into the hindlimb muscle. EMG activities obtained from the muscle were amplified, transformed into the square wave pulses with the window discriminator, and fed into integrator, the out-put of which was amplified and recorded by an inkwriting recorder.
The test compounds were dissolved in distilled water. After the EMG activities had remained stable over 15 to 30 minutes, the test compounds were cumulatively injected at a 5-minute interval into a cannulated femoral vein. The doses administered were 1.25 mg/kg, 2.5 mg/kg, 5.0 mg/kg, 10 mg/kg and finally 20 mg/kg. The EMG activities were expressed as a percentage of the pre-injection value, and the maximal effect within 5 minutes was measured in each dose. The median effective dose (ED50), the dose which reduced the EMG activity to 50%, was calculated by the method of Litchfield and Wilcoxon. In addition, the time from disappearance to reappearance of EMG activities after total dose of 20 mg/kg was expressed as the duration of the effect.

Series [2] shares this test system. Described as above. The series is classed as in vivo, Male rats of Wistar strain.
The subject of a further series is mice. The series can be described thus: Acute toxicity. The class given is in vivo. How it is done: as §1

Each structure is given as a SMILES string.

What is called LD50 is the dose expected to kill half of the subjects tested. A high value points to a less toxic substance. As a reminder, the ED50 is the midpoint of the dose-response relation. Consider `Cc1cc(C)c(C(=O)C(C)CN2CCCCC2)c(C)c1` (stereo not drawn) [Compound 4], for which, in “Acute toxicity”, the 50% lethal dose (LD50) at 168 h was 156 mg/kg and the selectivity ratio was determined as 1.27. In the series on muscle relaxation, this compound gave an ED50 of 123 mg/kg. Besides, the ED50 in series [1] worked out at 6.9 mg/kg. Besides, the toxicity in rats result in series [2] is “high toxicity in rats”.
In turn, `COc1ccc(C(=O)CCN2CCCC2)c(C)c1C` [Compound 7] came in with an LD50 at 168 h in the series “Acute toxicity” of 174 mg/kg. Also, the selectivity ratio in the series “Acute toxicity” was found to be 2. For the same compound, the ED50 in the series with muscle relaxation was 87.1 mg/kg; in series [1], 17.2 mg/kg.
As for `CCc1ccc(C(=O)C(C)CN2CCCCC2)cc1` (stereo not drawn) [Compound 2], in the series “Acute toxicity”, the LD50 at 168 h was determined as 129 mg/kg and the selectivity ratio is 2.01. Besides, it took a dose of 64.2 mg/kg to reach the 50% effect level with muscle relaxation (ED50). Moreover, in series [1], the ED50 was 12.7 mg/kg and the “α-Rigidity reducing effect Duration” value turned out to be 2.8 min.
For the compound `COc1ccc(C(=O)C(C)CN2CCCC2)c(C)c1C` (stereo not drawn) [A, 1-(2,3-dimethyl-4-methoxyphenyl)-2-methyl-3-(1-pyrrolidinyl)-1-propanone], in “Acute toxicity”, the LD50 at 168 h was determined as 161 mg/kg and the selectivity ratio came to 2.35. Besides, in the series on mice (vs Compound No. 1), the “safety index relative to Compound No. 1” value is listed as “about 1.8 times”. The “safety index relative to Compound No. 3” value in the series on mice (vs Compound No. 3) is on record as “about 1.5 times”. Besides, in the series with mice (vs Compound No. 6, in words), the “safety index relative to Compound No. 6” value is recorded as “higher safety index”. For the same compound, the “safety index relative to Compound No. 8” value in the series on mice (vs Compound No. 8, in words) is “higher safety index”. Moreover, it took a dose of 68.5 mg/kg to reach the 50% effect level in the series with muscle relaxation (ED50). The “potency in muscle relaxant activity relative to Compound No. 1” value in the series with muscle relaxation (vs Compound No. 1) was “about 2.3 times”. Also, the “potency in muscle relaxant activity relative to Compound No. 3” value in the series with muscle relaxation (vs Compound No. 3) was about 2.3 times. The “potency in muscle relaxant activity relative to Compound No. 4” value in the series on muscle relaxation (vs Compound No. 4) was about 1.8 times. In addition, in series [1], the ED50 worked out at 2.6 mg/kg and the “α-Rigidity reducing effect Duration” value is 16.3 min. Also, in series [1] (vs Compound No. 1), the “duration of action relative to Compound No. 1” value is “about 23 times” and the “potency in the reducing activity of α-rigidity relative to Compound No. 1” value is given as “about 4.7 times”. Besides, in series [1] (vs Compound No. 2), the “duration of action relative to Compound No. 2” value is given as “about 5.8 times” and the “potency in the reducing activity of α-rigidity relative to Compound No. 2” value is “about 4.9 times”. For the same compound, the “potency in α-rigidity reducing activity relative to Compound No. 3” value in series [1] (vs Compound No. 3) is “about 7.8 times”. In addition, the “potency in α-rigidity reducing activity relative to Compound No. 4” value in series [1] (vs Compound No. 4) is “about 2.7 times”. Moreover, in series [1] (vs Compound No. 5), the “duration of action relative to Compound No. 5” value was “about 1.9 times” and the “potency in the reducing activity of α-rigidity relative to Compound No. 5” value was “about 6 times”. Besides, in series [1] (vs Compound No. 6), the “potency in the reducing activity of α-rigidity relative to Compound No. 6” value is given as “about 2.8 times”. Also, the “duration of action relative to Compound No. 6” value in series [1] (vs Compound No. 6, in words) is “somewhat longer”. Also, the “potency in the reducing activity of α-rigidity relative to Compound No. 7” value in series [1] (vs Compound No. 7) was “about 6.6 times”. Moreover, the “potency in the reducing activity of α-rigidity relative to Compound No. 8” value in series [1] (vs Compound No. 8) was “about 3.7 times”. In series [1] (vs compound Nos. 1 to 5, overall conclusion from Tests 1-3), the “pharmacological activities relative to known analogous compound Nos. 1 to 5” value is “far greater”. Further, in series [1] (vs compound Nos. 6 to 8, overall conclusion from Tests 1-3), the “pharmacological activities relative to novel analogous compound Nos. 6 to 8” value was “fairly or far greater”.
In the case of `CCOc1ccc(C(=O)C(C)CN2CCCC2)c(C)c1C` (stereo not drawn) [Compound 8], in “Acute toxicity”, the LD50 at 168 h is 134 mg/kg and the selectivity ratio amounted to 1.78. In the series on muscle relaxation, this compound registered an ED50 of 75.5 mg/kg. In series [1], the ED50 came to 9.6 mg/kg and the “α-Rigidity reducing effect Duration” value stood at 14.8 min.
For the compound `Cc1ccc(C(=O)C(C)CN2CCCCC2)cc1C` (stereo not drawn) [Compound 5], in “Acute toxicity”, the LD50 at 168 h amounted to 140 mg/kg and the selectivity ratio amounted to 2.36. In addition, it took a dose of 59.3 mg/kg to reach the 50% effect level in the series on muscle relaxation (ED50). For the same compound, in series [1], it took a dose of 15.6 mg/kg to reach the 50% effect level (ED50) and the “α-Rigidity reducing effect Duration” value came out at 8.8 min.
For `Cc1ccc(C(=O)C(C)CN2CCCCC2)cc1` (stereo not drawn) [Compound 1, 2-methyl-1-p-methylphenyl-3-piperidino-1-propanone], in that order: 210 mg/kg, 1.34, 156 mg/kg, 12.3 mg/kg and 0.7 min.
For the compound `COc1ccc(C(=O)C(C)CN2CCCCC2)cc1OC` (stereo not drawn) [Compound 3], in the series “Acute toxicity”, the median lethal dose (LD50) at 168 h was 247 mg/kg and the selectivity ratio was 1.56. For the same compound, the ED50 in the series with muscle relaxation was 158 mg/kg. In addition, in series [1], the ED50 worked out at 20.2 mg/kg.
As for `COc1ccc(C(=O)C(C)CN2CCCC2)c(C)c1C` (stereo not drawn) [compound (I), 1-(2,3-dimethyl-4-methoxyphenyl)-2-methyl-3-(1-pyrrolidinyl)-1-propanone], the toxicity entry with mice (overall conclusion, in words) is recorded as “low toxicity”. Also, in the series on muscle relaxation (overall conclusion, in words), the “central muscle relaxant activities in comparison with the known compounds” value is “highly improved, excellent”.
`COc1ccc(C(=O)C(C)CN2CCCCC2)c(C)c1C` (stereo not drawn) [Compound 6]: in the series “Acute toxicity”, the median lethal dose (LD50) at 168 h was determined as 145 mg/kg and the selectivity ratio was 1.87. Moreover, the ED50 in the series with muscle relaxation turned out to be 77.7 mg/kg. Moreover, in series [1], the 50% effective dose (ED50) worked out at 7.3 mg/kg and the “α-Rigidity reducing effect Duration” value was 11.4 min.
